Measured values: patent publication US4277474A, “Treatment of allergic symptoms with propanone derivatives” (Nippon Zoki Pharmaceutical Co., Ltd., priority 1978, dated 1981)
Structures can show the parent of a compound that is named as a salt.

What was measured:
[1] = Acute toxicity in mice (LD50, Litchfield-Wilcoxon); conditions: mouse, in vivo, ICR male mice
Experimental: Acute toxicity tests were carried out by intraperitoneal or peroral administration of the compound according to the present invention to groups of 10 ICR-strain male mice (weighing 20 g on the average), and each LD50 value was determined by Litchfield-Wilcoxon Method.

SRS-A = test: Anti-SRS-A effect on guinea pig's ileum (Magnus method)
Experimental: The anti-SRS-A effect of the compounds according to the present invention on guinea pig's ileum was measured by Magnus method. […] One minute thereafter, the ileum contraction inhibiting rate (%) was measured with use of 1 ml of 80% ethanol solution of SRS-A (150 mg/ml).

Peritoneal cavity cells = test: Inhibitory effect on histamine release from sensitized peritoneal cavity cells; type: cell-based, rat (Wistar-strain); parameters: Released histamine, fluorescence intensity / Residual histamine, fluorescence intensity / Total histamine, fluorescence intensity: unit not given here; conditions: for Histamine release rate / Released histamine, fluorescence intensity / Residual histamine, fluorescence intensity / Total histamine, fluorescence intensity / Net release rate / inhibition at 10 µM: 0.01 mM; for Net release rate: release not caused by antigen-antibody reaction deducted
Experimental: The inhibitory effect on histamine release of the compounds according to the present invention was investigated as follows. […] These cells were suspended in a phosphoric acid buffer solution (containing 0.1% of gelatin) and each 0.5 ml portion of this suspension was taken in a polyethylene tube. 1 ml each of solutions of various concentrations of test compound and 0.5 ml of 200 μg/ml of ovalbumin solution were added therein. They were incubated for 20 minutes at 37° C. to measure the histamine release rate. The amount of histamine was measured by a modified Shore method using fluorescence.

[2] = test system: Hartley-strain male guinea pig; test: Experimental atopic asthma in passively sensitized guinea pigs; type: in vivo; conditions: 50 mg/kg peroral
Experimental: [Levine, B. B. et al., J. Immunol., 106, 29(1971)] was injected at a dosage of 0.25 ml/guinea pig into the hearts of groups of Hartley-strain male guinea pig (a group consisting of four), each weighing 250-300 g, to make them passively sensitive. […] The rate of breathing and the ratio of expiration time to inspiration time were calculated from the velocity of breathing. As an antigen to induce the reaction 200 μg/kg of benzylpenicilloyl bovine serum albumin [(BPO)23 -BSA] obtained by the method of Levine et al. [Levine et al.; J. Clin. Invest., 47, 556 (1968)] was injected through a cannula into the jugular vein.

homo PCA reaction = test: Inhibitory effect on homo PCA reaction in rats; type: in vivo

CC(CN1CCOCC1)C(=O)c1ccc2ccccc2c1 (stereo not drawn) [Example 4, 2-methyl-3-morpholino-β-propionaphthone hydrochloride]
LD50 ([1]; ip, intraperitoneal): 190 mg/kg
LD50 ([1]; po, peroral): 540 mg/kg
ileum contraction inhibiting rate (SRS-A; 10^-4 g/ml): 96.7 ± 3.33%
ileum contraction inhibiting rate (SRS-A; 10^-5 g/ml): 36.3 ± 14.19%
ileum contraction inhibiting rate (SRS-A; 10^-6 g/ml): 13.0 ± 12.50%
Histamine release rate (Peritoneal cavity cells): 44.2%
Released histamine, fluorescence intensity (Peritoneal cavity cells): 212
Residual histamine, fluorescence intensity (Peritoneal cavity cells): 268
Total histamine, fluorescence intensity (Peritoneal cavity cells): 480
Net release rate (Peritoneal cavity cells): 30.3%
inhibition at 10 µM (Peritoneal cavity cells; Rattus norvegicus): 7.4%

Cc1ccc(C(=O)C(C)CN2CCCCC2)cc1 (stereo not shown) [2,4'-dimethyl-3-piperidinopropiophenone, reference compound]
Histamine release rate (Peritoneal cavity cells): 50.8%
Net release rate (Peritoneal cavity cells): 36.9%
inhibition at 10 µM (Peritoneal cavity cells; Rattus norvegicus): 0%
inhibition on the variation from the normal values exhibited in the control group (in words) [2]: less inhibitory effect than the compounds according to the present invention
Expiration/inspiration ([2]; 1 min, 1 h before induction): 90.2 ± 4.02%
Rate of breathing ([2]; 1 min, 1 h before induction): 120.6 ± 4.98%
Volume of breathing ([2]; 1 min, 1 h before induction): 123.4 ± 6.52%
Expiration/inspiration ([2]; 3 min, 1 h before induction): 93.9 ± 5.09%
Rate of breathing ([2]; 3 min, 1 h before induction): 98.5 ± 6.55%
Volume of breathing ([2]; 3 min, 1 h before induction): 92.6 ± 8.29%
Expiration/inspiration ([2]; 6 min, 1 h before induction): 94.3 ± 5.34%
Rate of breathing ([2]; 6 min, 1 h before induction): 89.5 ± 3.36%
Volume of breathing ([2]; 6 min, 1 h before induction): 96.7 ± 3.97%
Expiration/inspiration ([2]; 18 min, 1 h before induction): 96.6 ± 2.39%
Rate of breathing ([2]; 18 min, 1 h before induction): 91.3 ± 1.57%
Volume of breathing ([2]; 18 min, 1 h before induction): 90.6 ± 1.52%
Expiration/inspiration ([2]; 30 min, 1 h before induction): 94.8 ± 4.76%
Rate of breathing ([2]; 30 min, 1 h before induction): 93.3 ± 2.80%
Volume of breathing ([2]; 30 min, 1 h before induction): 91.4 ± 6.20%
Expiration/inspiration ([2]; 60 min, 1 h before induction): 93.9 ± 3.98%
Rate of breathing ([2]; 60 min, 1 h before induction): 86.9 ± 6.14%
Volume of breathing ([2]; 60 min, 1 h before induction): 90.9 ± 4.47%
Expiration/inspiration ([2]; 90 min, 1 h before induction): 104.3 ± 6.02%
Rate of breathing ([2]; 90 min, 1 h before induction): 84.6 ± 6.03%
Volume of breathing ([2]; 90 min, 1 h before induction): 91.0 ± 3.34%
Expiration/inspiration ([2]; 130 min, 1 h before induction): 107.0 ± 3.44%
Rate of breathing ([2]; 130 min, 1 h before induction): 87.3 ± 4.44%
Volume of breathing ([2]; 130 min, 1 h before induction): 94.9 ± 4.71%
Expiration/inspiration ([2]; 180 min, 1 h before induction): 109.3 ± 6.26%
Rate of breathing ([2]; 180 min, 1 h before induction): 87.5 ± 6.43%
Volume of breathing ([2]; 180 min, 1 h before induction): 93.8 ± 6.49%
Expiration/inspiration ([2]; before test): 100.0 ± 0.00%
Rate of breathing ([2]; before test): 100.0 ± 0.00%
Volume of breathing ([2]; before test): 100.0 ± 0.00%
inhibition of homo PCA reaction (homo PCA reaction; 200 mg/Kg peroral): about 40%

CC(CN1CCCCC1)C(=O)c1ccc2ccccc2c1 (stereo not drawn) [Example 2, 2-methyl-3-piperidino-β-propionaphthone hydrochloride]
LD50 ([1]; ip, intraperitoneal): 120 mg/kg
LD50 ([1]; po, peroral): 370 mg/kg
ileum contraction inhibiting rate (SRS-A; 10^-4 g/ml): 76.0 ± 7.23%
ileum contraction inhibiting rate (SRS-A; 10^-5 g/ml): 53.7 ± 8.68%
ileum contraction inhibiting rate (SRS-A; 10^-6 g/ml): 10.0 ± 8.08%
Histamine release rate (Peritoneal cavity cells): 38.6%
Released histamine, fluorescence intensity (Peritoneal cavity cells): 184
Residual histamine, fluorescence intensity (Peritoneal cavity cells): 292
Total histamine, fluorescence intensity (Peritoneal cavity cells): 476
Net release rate (Peritoneal cavity cells): 24.7%
inhibition at 10 µM (Peritoneal cavity cells; Rattus norvegicus): 24.5%
inhibition at 100 µM (Peritoneal cavity cells; Rattus norvegicus, 0.1 mM, read-out: Inhibitory effect on histamine release): 60%
Expiration/inspiration ([2]; 1 min, 1 h before induction): 78.4 ± 9.00%
Rate of breathing ([2]; 1 min, 1 h before induction): 120.8 ± 3.19%
Volume of breathing ([2]; 1 min, 1 h before induction): 108.2 ± 1.78%
Expiration/inspiration ([2]; 3 min, 1 h before induction): 108.7 ± 11.36%
Rate of breathing ([2]; 3 min, 1 h before induction): 90.3 ± 3.36%
Volume of breathing ([2]; 3 min, 1 h before induction): 86.7 ± 4.14%
Expiration/inspiration ([2]; 6 min, 1 h before induction): 99.8 ± 4.30%
Rate of breathing ([2]; 6 min, 1 h before induction): 92.2 ± 5.69%
Volume of breathing ([2]; 6 min, 1 h before induction): 90.3 ± 8.26%
Expiration/inspiration ([2]; 18 min, 1 h before induction): 106.5 ± 5.25%
Rate of breathing ([2]; 18 min, 1 h before induction): 91.6 ± 5.71%
Volume of breathing ([2]; 18 min, 1 h before induction): 86.0 ± 8.49%
Expiration/inspiration ([2]; 30 min, 1 h before induction): 100.3 ± 3.41%
Rate of breathing ([2]; 30 min, 1 h before induction): 96.4 ± 4.09%
Volume of breathing ([2]; 30 min, 1 h before induction): 93.7 ± 3.75%
Expiration/inspiration ([2]; 60 min, 1 h before induction): 97.0 ± 3.47%
Rate of breathing ([2]; 60 min, 1 h before induction): 96.2 ± 3.62%
Volume of breathing ([2]; 60 min, 1 h before induction): 96.6 ± 4.92%
Expiration/inspiration ([2]; 90 min, 1 h before induction): 96.5 ± 3.18%
Rate of breathing ([2]; 90 min, 1 h before induction): 94.0 ± 5.23%
Volume of breathing ([2]; 90 min, 1 h before induction): 97.6 ± 7.12%
Expiration/inspiration ([2]; 130 min, 1 h before induction): 106.4 ± 4.19%
Rate of breathing ([2]; 130 min, 1 h before induction): 94.3 ± 6.97%
Volume of breathing ([2]; 130 min, 1 h before induction): 92.1 ± 9.25%
Expiration/inspiration ([2]; 180 min, 1 h before induction): 108.7 ± 6.81%
Rate of breathing ([2]; 180 min, 1 h before induction): 98.2 ± 5.42%
Volume of breathing ([2]; 180 min, 1 h before induction): 97.8 ± 7.28%
Expiration/inspiration ([2]; before test): 100.0 ± 0.00%
Rate of breathing ([2]; before test): 100.0 ± 0.00%
Volume of breathing ([2]; before test): 100.0 ± 0.00%
inhibitory effect on homo PCA reaction, dose dependence (in words) (homo PCA reaction): their effects depended on the dose
inhibition of homo PCA reaction (homo PCA reaction; 5 mg/Kg intravenous): 62.1%

Cc1ccc(C(=O)C(C)CN2CCCCC2)cc1C.Cl (stereo not shown) [Example 5, 2,3',4'-trimethyl-3-piperidinopropiophenone hydrochloride]
LD50 ([1]; ip, intraperitoneal): 117 mg/kg
LD50 ([1]; po, peroral): 325 mg/kg
ileum contraction inhibiting rate (SRS-A; 10^-4 g/ml): 100.0 ± 0%
ileum contraction inhibiting rate (SRS-A; 10^-5 g/ml): 67.7 ± 8.11%
ileum contraction inhibiting rate (SRS-A; 10^-6 g/ml): 12.3 ± 8.25%
Histamine release rate (Peritoneal cavity cells): 42.9%
Released histamine, fluorescence intensity (Peritoneal cavity cells): 210
Residual histamine, fluorescence intensity (Peritoneal cavity cells): 280
Total histamine, fluorescence intensity (Peritoneal cavity cells): 490
Net release rate (Peritoneal cavity cells): 29.0%
inhibition at 10 µM (Peritoneal cavity cells; Rattus norvegicus): 11.3%
Expiration/inspiration ([2]; 1 min, 1 h before induction): 77.6 ± 3.68%
Rate of breathing ([2]; 1 min, 1 h before induction): 122.0 ± 16.99%
Volume of breathing ([2]; 1 min, 1 h before induction): 100.5 ± 5.01%
Expiration/inspiration ([2]; 3 min, 1 h before induction): 92.3 ± 2.19%
Rate of breathing ([2]; 3 min, 1 h before induction): 93.7 ± 7.20%
Volume of breathing ([2]; 3 min, 1 h before induction): 86.9 ± 5.99%
Expiration/inspiration ([2]; 6 min, 1 h before induction): 98.7 ± 3.93%
Rate of breathing ([2]; 6 min, 1 h before induction): 93.7 ± 5.80%
Volume of breathing ([2]; 6 min, 1 h before induction): 86.4 ± 6.96%
Expiration/inspiration ([2]; 18 min, 1 h before induction): 97.7 ± 2.62%
Rate of breathing ([2]; 18 min, 1 h before induction): 99.9 ± 4.00%
Volume of breathing ([2]; 18 min, 1 h before induction): 86.3 ± 3.71%
Expiration/inspiration ([2]; 30 min, 1 h before induction): 103.2 ± 1.10%
Rate of breathing ([2]; 30 min, 1 h before induction): 92.5 ± 1.76%
Volume of breathing ([2]; 30 min, 1 h before induction): 86.6 ± 2.44%
Expiration/inspiration ([2]; 60 min, 1 h before induction): 94.3 ± 3.87%
Rate of breathing ([2]; 60 min, 1 h before induction): 97.0 ± 1.81%
Volume of breathing ([2]; 60 min, 1 h before induction): 93.5 ± 6.17%
Expiration/inspiration ([2]; 90 min, 1 h before induction): 96.7 ± 4.58%
Rate of breathing ([2]; 90 min, 1 h before induction): 90.7 ± 6.14%
Volume of breathing ([2]; 90 min, 1 h before induction): 93.5 ± 3.78%
Expiration/inspiration ([2]; 130 min, 1 h before induction): 106.2 ± 5.28%
Rate of breathing ([2]; 130 min, 1 h before induction): 92.9 ± 5.33%
Volume of breathing ([2]; 130 min, 1 h before induction): 87.4 ± 3.03%
Expiration/inspiration ([2]; 180 min, 1 h before induction): 100.1 ± 2.03%
Rate of breathing ([2]; 180 min, 1 h before induction): 97.5 ± 1.82%
Volume of breathing ([2]; 180 min, 1 h before induction): 95.1 ± 3.33%
Expiration/inspiration ([2]; before test): 100.0 ± 0.00%
Rate of breathing ([2]; before test): 100.0 ± 0.00%
Volume of breathing ([2]; before test): 100.0 ± 0.00%
inhibitory effect on homo PCA reaction, dose dependence (in words) (homo PCA reaction): their effects depended on the dose
inhibition of homo PCA reaction (homo PCA reaction; 200 mg/Kg peroral): about 70%
